Data: PubChem BioAssay AID248 (DTP/NCI, 2004)
Several values for one entry are separate records, joined by “and”; a condition that tells them apart may be missing. Equal entries are not always repeated. Toxic doses and inconclusive results are not listed. Rule as the data show it: active = T/C of 150% or more; inactive = T/C below 125%.

Tested on: L1210 leukemia ip in BDF1 mice, survival T/C
Assay: NCI In Vivo Anticancer Drug Screen. Data for tumor model L1210 Leukemia (intraperitoneal) in B6D2F1 (BDF1) mice
Conditions: endpoint: mean survival time, higher = longer survival
In short: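 Read-out is survival time, reported as the treated-group measurement over the vehicle-control measurement.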

[1] = dose: 100.0 mg/kg/injection, schedule: Q01DX009 (ip), vehicle: Klucel (hydroxypropylcellulose) (HPC)
[2] = dose: 200.0 mg/kg/injection, schedule: Q01DX009 (ip), vehicle: Klucel (hydroxypropylcellulose) (HPC)
[3] = dose: 400.0 mg/kg/injection, schedule: Q01DX009 (ip), vehicle: Klucel (hydroxypropylcellulose) (HPC)
[4] = dose: 50.0 mg/kg/injection, schedule: Q01DX009 (ip), vehicle: saline
[5] = dose: 100.0 mg/kg/injection, schedule: Q01DX009 (ip), vehicle: saline
[6] = dose: 100.0 mg/kg/injection, schedule: Q04DX003 (ip), vehicle: saline with Tween-80
[7] = dose: 100.0 mg/kg/injection, schedule: Q01DX009 (ip), vehicle: saline with Tween-80
[8] = dose: 200.0 mg/kg/injection, schedule: Q01DX009 (ip), vehicle: saline with Tween-80
[9] = dose: 100.0 mg/kg/injection, schedule: Q01DX001 (ip), vehicle: saline
[10] = dose: 200.0 mg/kg/injection, schedule: Q01DX001 (ip), vehicle: saline
[11] = dose: 400.0 mg/kg/injection, schedule: Q01DX001 (ip), vehicle: saline
[12] = dose: 100.0 mg/kg/injection, schedule: Q01DX001 (ip), vehicle: Klucel (hydroxypropylcellulose) (HPC)
[13] = dose: 200.0 mg/kg/injection, schedule: Q01DX001 (ip), vehicle: Klucel (hydroxypropylcellulose) (HPC)
[14] = dose: 12.5 mg/kg/injection, schedule: Q01DX009 (ip), vehicle: saline
[15] = dose: 25.0 mg/kg/injection, schedule: Q01DX009 (ip), vehicle: saline
[16] = dose: 100.0 mg/kg/injection, schedule: Q04DX003 (ip), vehicle: Klucel (hydroxypropylcellulose) (HPC)
[17] = dose: 200.0 mg/kg/injection, schedule: Q04DX003 (ip), vehicle: Klucel (hydroxypropylcellulose) (HPC)
[18] = dose: 400.0 mg/kg/injection, schedule: Q04DX003 (ip), vehicle: Klucel (hydroxypropylcellulose) (HPC)
[19] = dose: 12.5 mg/kg/injection, schedule: Q04DX003 (ip), vehicle: saline with Tween-80
[20] = dose: 50.0 mg/kg/injection, schedule: Q01DX001 (ip), vehicle: carboxymethylcellulose (CMC)
[21] = dose: 100.0 mg/kg/injection, schedule: Q01DX001 (ip), vehicle: carboxymethylcellulose (CMC)
[22] = dose: 200.0 mg/kg/injection, schedule: Q01DX001 (ip), vehicle: carboxymethylcellulose (CMC)
[23] = dose: 400.0 mg/kg/injection, schedule: Q01DX001 (ip), vehicle: carboxymethylcellulose (CMC)

Measured: T/C

O=C1CCC(c2cccc([N+](=O)[O-])c2)=NN1
inactive: [1] 89 % of control | [2] 93 % of control | [3] 89 % of control

C=C[CH2][Sn]([c]1ccccc1)([c]1ccccc1)[c]1ccccc1
inactive: [4] 92 % of control and 101 % of control | [5] 96 % of control and 101 % of control | [6] 91 % of control | dose: 200.0 mg/kg/injection, schedule: Q01DX009 (ip), vehicle: saline 96 % of control and 97 % of control

C=CC/C(=C/CCC)CCC
inactive: dose: 50.0 mg/kg/injection, schedule: Q01DX009 (ip), vehicle: saline with Tween-80 95 % of control | [7] 100 % of control | [8] 100 % of control

O=C(O)c1cccc(C(=O)O)[n+]1[O-]
inactive: dose: 50.0 mg/kg/injection, schedule: Q04DX002 (ip), vehicle: Klucel (hydroxypropylcellulose) (HPC) 101 % of control | dose: 100.0 mg/kg/injection, schedule: Q04DX002 (ip), vehicle: Klucel (hydroxypropylcellulose) (HPC) 95 % of control

CN(C)c1ccc(S(=O)(=O)c2ccc(N(C)C)c([N+](=O)[O-])c2)cc1[N+](=O)[O-]
inactive: dose: 100.0 mg/kg/injection, schedule: Q04DX002 (ip), vehicle: DMSO 107 % of control | dose: 200.0 mg/kg/injection, schedule: Q04DX002 (ip), vehicle: DMSO 103 % of control | dose: 400.0 mg/kg/injection, schedule: Q04DX002 (ip), vehicle: DMSO 103 % of control

CCOC(=O)CNC(=O)Oc1cc(C)cc(C)c1C
inactive: [7] 98 % of control | [8] 100 % of control | dose: 400.0 mg/kg/injection, schedule: Q01DX009 (ip), vehicle: saline with Tween-80 98 % of control

CCc1ccc(NC(=O)c2cc(OC)c(OC)c(OC)c2)cc1
inactive: [1] 100 % of control | [2] 97 % of control | [3] 101 % of control

CN(C(=O)OCc1ccccc1)c1ccc(C(=O)O)cc1
inactive: [9] 97 % of control | [10] 94 % of control | [11] 97 % of control

O=C(OCCCl)C1C2CCC(O2)C1C(=O)OCCCl (stereo not given)
inactive: dose: 1.56 mg/kg/injection, schedule: Q04DX002 (ip), vehicle: Klucel (hydroxypropylcellulose) (HPC) 103 % of control

CC(=O)OCCOc1ccc(Cl)cc1
inactive: dose: 100.0 mg/kg/injection, schedule: Q04DX002 (ip), vehicle: saline 107 % of control | dose: 200.0 mg/kg/injection, schedule: Q04DX002 (ip), vehicle: saline 96 % of control | dose: 400.0 mg/kg/injection, schedule: Q04DX002 (ip), vehicle: saline 107 % of control

CC(CC(=O)O)[Se][Se]C(C)CC(=O)O (stereo not given)
inactive: [12] 108 % of control | [13] 102 % of control

CCN(CC)Cc1cc(Nc2cc(C)nc3ccc(N(C)C)cc23)ccc1O
inactive: [14] 104 % of control | [15] 98 % of control | [4] 100 % of control

Cc1c(C#N)oc2c(Cl)cc(Cl)cc12
inactive: [1] 99 % of control | [16] 100 % of control | [2] 99 % of control | [17] 100 % of control | [18] 101 % of control

N#CCCOCC(COCCC#N)OCCC#N
inactive: dose: 50.0 mg/kg/injection, schedule: Q01DX001 (ip), vehicle: saline 106 % of control | [4] 124 % of control | [9] 108 % of control | [5] 108 % of control | [10] 101 % of control | [11] 92 % of control

O=C(NCCCl)Nc1cccnc1
inactive: dose: 6.25 mg/kg/injection, schedule: Q01DX009 (ip), vehicle: saline 104 % of control | [14] 101 % of control | [19] 102 % of control | [15] 105 % of control | dose: 25.0 mg/kg/injection, schedule: Q04DX003 (ip), vehicle: saline with Tween-80 96 % of control

Nc1nc(-c2ccccc2)[nH]c(=O)c1N=O
inactive: dose: 100.0 mg/kg/injection, schedule: Q04DX002 (ip), vehicle: saline with Tween-80 98 % of control | dose: 200.0 mg/kg/injection, schedule: Q04DX002 (ip), vehicle: saline with Tween-80 87 % of control | dose: 400.0 mg/kg/injection, schedule: Q04DX002 (ip), vehicle: saline with Tween-80 102 % of control

CNCCC(=O)c1ccccc1
inactive: [16] 99 % of control | [17] 99 % of control

CCSC(=O)Nc1cccc(O)c1
inactive: dose: 100.0 mg/kg/injection, schedule: Q01DX001 (ip), vehicle: saline + alcohol 94 % of control | dose: 200.0 mg/kg/injection, schedule: Q01DX001 (ip), vehicle: saline + alcohol 94 % of control | dose: 400.0 mg/kg/injection, schedule: Q01DX001 (ip), vehicle: saline + alcohol 93 % of control

Cn1cc(F)c(=O)[nH]c1=O
inactive: dose: 5.0 mg/kg/injection, schedule: Q01DX Z (ip), vehicle: carboxymethylcellulose (CMC) 96 % of control | dose: 10.0 mg/kg/injection, schedule: Q01DX Z (ip), vehicle: carboxymethylcellulose (CMC) 100 % of control | dose: 20.0 mg/kg/injection, schedule: Q01DX Z (ip), vehicle: carboxymethylcellulose (CMC) 113 % of control | dose: 40.0 mg/kg/injection, schedule: Q01DX Z (ip), vehicle: carboxymethylcellulose (CMC) 96 % of control

O=CN/N=C\c1cc2ccccc2c2ccccc12
inactive: [20] 96 % of control | [21] 93 % of control | [22] 93 % of control | [23] 87 % of control

Cc1c2cc[nH]c(C(F)(F)F)c2cc2c1nc1ccccc12
inactive: dose: 16.0 mg/kg/injection, schedule: Q01DX005 (ip), vehicle: saline 101 % of control | dose: 32.0 mg/kg/injection, schedule: Q01DX005 (ip), vehicle: saline 103 % of control | dose: 64.0 mg/kg/injection, schedule: Q01DX005 (ip), vehicle: saline 103 % of control | dose: 128.0 mg/kg/injection, schedule: Q01DX005 (ip), vehicle: saline 103 % of control

COC(=O)/C=C(\C)C(C)=Nc1ccccc1
inactive: [6] 106 % of control | dose: 200.0 mg/kg/injection, schedule: Q04DX003 (ip), vehicle: saline with Tween-80 106 % of control

COC(=O)C1CC(=O)c2c(O)ccc(O)c2C1 (stereo not given)
inactive: dose: 12.5 mg/kg/injection, schedule: Q04DX003 (ip), vehicle: Klucel (hydroxypropylcellulose) (HPC) 96 % of control | dose: 25.0 mg/kg/injection, schedule: Q04DX003 (ip), vehicle: Klucel (hydroxypropylcellulose) (HPC) 104 % of control | dose: 50.0 mg/kg/injection, schedule: Q04DX003 (ip), vehicle: Klucel (hydroxypropylcellulose) (HPC) 98 % of control | [12] 92 % of control | [16] 100 % of control | [13] 92 % of control | [17] 101 % of control | dose: 400.0 mg/kg/injection, schedule: Q01DX001 (ip), vehicle: Klucel (hydroxypropylcellulose) (HPC) 90 % of control | [18] 106 % of control

CCN(CC)CCCNc1ccnc2cc(Cl)ccc12
inactive: [9] 94 % of control

CC(C)(C)CC1=C(O)c2ccccc2C(=O)C1=O
inactive: [20] 114 % of control | [21] 111 % of control | [22] 105 % of control | [23] 100 % of control

CCC(CC)OCCN1CCN(CCCN2c3ccccc3Sc3ccc(C(F)(F)F)cc32)CC1
inactive: dose: 0.39 mg/kg/injection, schedule: Q01DX009 (ip), vehicle: saline with Tween-80 107 % of control | dose: 0.78 mg/kg/injection, schedule: Q01DX009 (ip), vehicle: saline with Tween-80 107 % of control | dose: 1.56 mg/kg/injection, schedule: Q01DX009 (ip), vehicle: saline with Tween-80 95 % of control | dose: 1.56 mg/kg/injection, schedule: Q04DX003 (ip), vehicle: saline with Tween-80 97 % of control | dose: 3.12 mg/kg/injection, schedule: Q04DX003 (ip), vehicle: saline with Tween-80 96 % of control | dose: 6.25 mg/kg/injection, schedule: Q04DX003 (ip), vehicle: saline with Tween-80 112 % of control | [19] 97 % of control

O=C(Nc1ccc(F)cc1)C(Br)C(Br)c1ccccc1 (stereo not given)
inactive: [1] 88 % of control | [2] 102 % of control | [3] 91 % of control
